Results from patent US20230257372A1 (CHONG KUN DANG PHARMACEUTICAL CORP., priority 2020, published 2023).
Where two headings read alike, the source gives them in different places.

Assays:
human recombinant HDAC6 = biological target: T1, human recombinant HDAC6 (Homo sapiens, UniProt Q9UBN7); assay: HDAC6 enzyme activity inhibition (HDAC Fluorimetric Drug Discovery Kit); type: biochemical
T1 construct: purchased Calbiochem Inc. 382180
T1 sequence (Q9UBN7 1-1215): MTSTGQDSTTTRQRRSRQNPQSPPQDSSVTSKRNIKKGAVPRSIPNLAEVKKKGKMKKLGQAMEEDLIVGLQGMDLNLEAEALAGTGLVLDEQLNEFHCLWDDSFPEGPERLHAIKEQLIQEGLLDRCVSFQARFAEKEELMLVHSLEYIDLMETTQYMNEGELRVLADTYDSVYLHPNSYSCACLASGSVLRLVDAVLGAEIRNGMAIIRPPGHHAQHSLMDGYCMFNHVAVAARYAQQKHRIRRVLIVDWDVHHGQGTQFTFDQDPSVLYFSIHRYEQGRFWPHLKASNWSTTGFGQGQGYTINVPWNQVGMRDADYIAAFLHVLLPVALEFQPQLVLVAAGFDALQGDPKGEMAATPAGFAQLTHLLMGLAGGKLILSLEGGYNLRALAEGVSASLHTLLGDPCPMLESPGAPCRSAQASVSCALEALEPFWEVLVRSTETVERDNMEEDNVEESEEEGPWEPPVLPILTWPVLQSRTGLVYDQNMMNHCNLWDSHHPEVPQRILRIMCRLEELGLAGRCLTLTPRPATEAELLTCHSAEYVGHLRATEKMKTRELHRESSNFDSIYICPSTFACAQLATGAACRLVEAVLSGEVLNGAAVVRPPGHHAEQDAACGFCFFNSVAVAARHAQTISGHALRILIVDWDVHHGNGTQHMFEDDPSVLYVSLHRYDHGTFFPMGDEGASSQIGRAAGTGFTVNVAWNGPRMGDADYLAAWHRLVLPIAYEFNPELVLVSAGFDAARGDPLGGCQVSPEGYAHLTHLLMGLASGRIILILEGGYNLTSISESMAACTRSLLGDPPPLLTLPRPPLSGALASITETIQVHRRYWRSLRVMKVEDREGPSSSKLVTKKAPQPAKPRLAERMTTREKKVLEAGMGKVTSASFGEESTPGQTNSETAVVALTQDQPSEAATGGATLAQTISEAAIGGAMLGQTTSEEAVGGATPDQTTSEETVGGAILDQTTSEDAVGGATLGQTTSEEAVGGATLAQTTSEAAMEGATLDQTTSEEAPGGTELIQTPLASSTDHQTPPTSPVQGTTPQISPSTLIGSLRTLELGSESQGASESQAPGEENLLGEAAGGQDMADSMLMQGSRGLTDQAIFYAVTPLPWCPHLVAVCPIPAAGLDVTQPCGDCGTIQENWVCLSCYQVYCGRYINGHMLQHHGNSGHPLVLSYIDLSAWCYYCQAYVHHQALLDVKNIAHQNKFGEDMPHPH
Procedure, shortened: (§1)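 Enzyme at 0.3 µg per well was reacted with 10 μM fluorogenic substrate in presence of 5-fold diluted compound, 30° C for 60 min.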

human recombinant HDAC1 = biological target: T2, human recombinant HDAC1 (Homo sapiens, UniProt Q13547); assay: HDAC1 enzyme activity inhibition (HDAC Fluorimetric Drug Discovery Kit); type: biochemical; conditions: read-out: HDAC1
T2 construct: purchased Enzo Life Science, Inc. BML-SE456
Procedure, shortened: as §1

[1] = human recombinant HDAC6, IC50 calculated with GraphPad Prism
[2] = human recombinant HDAC1, IC50 calculated with GraphPad Prism
[3] = human recombinant HDAC6, same protocol as HDAC1
[4] = human recombinant HDAC1, Fluor de Lys substrate, 30° C. 60 minutes

T2 sequence (Q13547 whole entry): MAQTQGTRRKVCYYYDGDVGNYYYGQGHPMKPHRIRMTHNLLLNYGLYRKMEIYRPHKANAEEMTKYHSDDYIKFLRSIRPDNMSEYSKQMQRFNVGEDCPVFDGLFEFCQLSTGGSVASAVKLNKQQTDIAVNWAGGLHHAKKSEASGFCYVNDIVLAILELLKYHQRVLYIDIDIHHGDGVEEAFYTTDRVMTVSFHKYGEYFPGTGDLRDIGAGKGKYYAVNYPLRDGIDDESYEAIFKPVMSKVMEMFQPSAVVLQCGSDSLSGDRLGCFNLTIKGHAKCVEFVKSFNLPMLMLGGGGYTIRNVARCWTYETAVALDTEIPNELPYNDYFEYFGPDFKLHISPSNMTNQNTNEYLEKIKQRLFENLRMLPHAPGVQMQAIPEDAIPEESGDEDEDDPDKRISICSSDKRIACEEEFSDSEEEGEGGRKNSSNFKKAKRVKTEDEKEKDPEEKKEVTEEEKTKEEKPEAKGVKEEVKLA

| HDAC6 selectivity (fold) (human recombinant HDAC6; HDAC1 IC50 / HDAC6 IC50) | IC50 (human recombinant HDAC6; [1]) | IC50 (human recombinant HDAC1; [2]) | HDAC6 selectivity (fold) (human recombinant HDAC6; HDAC6 over HDAC1) | IC50 (human recombinant HDAC6; [3]) | IC50 (human recombinant HDAC1; [4]) | SMILES |
| --- | --- | --- | --- | --- | --- | --- |
|  |  |  | 2347 fold | 21.3 nM | > 50000 nM | FC1CN(Cc2ccc(-c3cn(Cc4ccc(-c5nnc(C(F)F)o5)cn4)nn3)cc2)C1 [Compound 4559, 2-(difluoromethyl)-5-(6-((4-(4-((3-fluoroazetidin-1-yl)methyl)phenyl)-1H-1,2,3-triazol-1-yl)methyl)pyridin-3-yl)-1,3,4-oxadiazole] |
|  |  |  | 646 fold | 77.3 nM | > 50000 nM | Fc1cc(-c2nnc(C(F)F)o2)ccc1Cn1cc(-c2nccs2)nn1 [Compound 17848, 2-(difluoromethyl)-5-(3-fluoro-4-((4-(thiazol-2-yl)-1H-1,2,3-triazol-1-yl)methyl)phenyl)-1,3,4-oxadiazole] |
|  |  |  | 970 fold | 51.5 nM | > 50000 nM | CN(C)Cc1cc(Cl)cc(-c2cn(Cc3ccc(-c4nnc(C(F)F)o4)cc3F)nn2)c1 [Compound 18483, 1-(3-chloro-5-(1-(4-(5-(difluoromethyl)-1,3,4-oxadiazol-2-yl)-2-fluorobenzyl)-1H-1,2,3-triazol-4-yl)phenyl)-N,N-dimethylmethanamine] |
| 1655 fold | 30.2 nM | > 50000 nM |  |  |  | C[C@@H]1CN(c2cccc(-c3cn(Cc4ccc(-c5nnc(C(F)F)o5)cc4)nn3)c2)C[C@H](C)N1 [Compound 4440, 2-(difluoromethyl)-5-(4-((4-(3-((3R,5S)-3,5-dimethylpiperazin-1-yl)phenyl)-1H-1,2,3-triazol-1-yl)methyl)phenyl)-1,3,4-oxadiazole] |
| 2604 fold | 19.2 nM | > 50000 nM |  |  |  | Fc1ccc(N2CCNCC2)cc1-c1cn(Cc2ccc(-c3nnc(C(F)F)o3)cc2)nn1 [Compound 4450, 2-(difluoromethyl)-5-(4-((4-(2-fluoro-5-(piperazin-1-yl)phenyl)-1H-1,2,3-triazol-1-yl)methyl)phenyl)-1,3,4-oxadiazole] |
|  |  |  | 628 fold | 79.5 nM | > 50000 nM | CN1CCN(c2ccc(-c3cn(Cc4ccc(-c5nnc(C(F)F)o5)cc4F)nn3)cn2)CC1 [Compound 16789, 2-(difluoromethyl)-5-(3-fluoro-4-((4-(6-(4-methylpiperazin-1-yl)pyridin-3-yl)-1H-1,2,3-triazol-1-yl)methyl)phenyl)-1,3,4-oxadiazole] |
|  |  |  | 2032 fold | 24.6 nM | > 50000 nM | CCN1CCN(c2cccc(-c3cn(Cc4ccc(-c5nnc(C(F)F)o5)cc4F)nn3)n2)CC1 [Compound 17362, 2-(difluoromethyl)-5-(4-((4-(6-(4-ethylpiperazin-1-yl)pyridin-2-yl)-1H-1,2,3-triazol-1-yl)methyl)-3-fluorophenyl)-1,3,4-oxadiazole] |
|  |  |  | 776 fold | 64.4 nM | > 50000 nM | FC(F)c1nnc(-c2ccc(Cn3cc(-c4ccc5c(c4)CNC5)nn3)nc2)o1 [Compound 4539, 2-(difluoromethyl)-5-(6-((4-(isoindolin-5-yl)-1H-1,2,3-triazol-1-yl)methyl)pyridin-3-yl)-1,3,4-oxadiazole] |
| 370 fold | 13.5 nM | > 50000 nM |  |  |  | Fc1cc(-c2nnc(C(F)F)o2)ccc1Cn1cc(-c2ccc(CNC3CCC3)cc2)nn1 [Compound 4468, N-(4-(1-(4-(5-(difluoromethyl)-1,3,4-oxadiazol-2-yl)-2-fluorobenzyl)-1H-1,2,3-triazol-4-yl)benzyl)cyclobutanamine] |

Second part, the molecule before the results:

| SMILES | HDAC6 selectivity (fold) (human recombinant HDAC6; HDAC1 IC50 / HDAC6 IC50) | IC50 (human recombinant HDAC6; [1]) | IC50 (human recombinant HDAC1; [2]) | HDAC6 selectivity (fold) (human recombinant HDAC6; HDAC6 over HDAC1) | IC50 (human recombinant HDAC6; [3]) | IC50 (human recombinant HDAC1; [4]) |
| --- | --- | --- | --- | --- | --- | --- |
| Fc1cc(-c2nnc(C(F)F)o2)ccc1Cn1cc(-c2ccc(F)c(N3C[C@@H]4C[C@H]3CN4)c2)nn1 [Compound 4399, 2-(4-((4-(3-((1S,4S)-2,5-diazabicyclo[2.2.1]heptan-2-yl)-4-fluorophenyl)-1H-1,2,3-triazol-1-yl)methyl)-3-fluorophenyl)-5-(difluoromethyl)-1,3,4-oxadiazole] | 460 fold | 108 nM | > 50000 nM |  |  |  |
| CN(C)C(C)(C)C(=O)Nc1cccc(-c2cn(Cc3ccc(-c4nnc(C(F)F)o4)cc3F)nn2)c1 [Compound 4353] | 1201 fold | 41.6 nM | > 50000 nM |  |  |  |
| FC(F)c1nnc(-c2ccc(Cn3cc(-c4cccc(N5C[C@@H]6C[C@H]5CN6C5CCC5)c4)nn3)cc2)o1 [Compound 4322] | 531 fold | 94 nM | > 50000 nM |  |  |  |
| FC(F)c1nnc(-c2ccc(Cn3cc(-c4ccccc4)cn3)nc2)o1 [Compound 4133, 2-(difluoromethyl)-5-(6-((4-phenyl-1H-pyrazol-1-yl)methyl)pyridin-3-yl)-1,3,4-oxadiazole] | 444 fold | 113 nM | > 50000 nM |  |  |  |
| Fc1cc(-c2nnc(C(F)F)o2)ccc1Cn1cc(-c2cc(C(F)(F)F)cc(C(F)(F)F)c2)nn1 [Compound 3696, 2-(4-((4-(3,5-bis(trifluoromethyl)phenyl)-1H-1,2,3-triazol-1-yl)methyl)-3-fluorophenyl)-5-(difluoromethyl)-1,3,4-oxadiazole] | 52 fold | 945 nM | > 50000 nM |  |  |  |
| FC(F)c1nnc(-c2ccc(Cn3cnc(-c4ccccc4)c3)nc2)o1 [Compound 3950, 2-(difluoromethyl)-5-(6-((4-phenyl-1H-imidazol-1-yl)methyl)pyridin-3-yl)-1,3,4-oxadiazole] | 954 fold | 52.4 nM | > 50000 nM |  |  |  |
| FC(F)c1nnc(-c2ccc(Cn3cc(-c4ccc(Cl)nc4)nn3)nc2)o1 [Compound 3882, 2-(6-((4-(6-chloropyridin-3-yl)-1H-1,2,3-triazol-1-yl)methyl)pyridin-3-yl)-5-(difluoromethyl)-1,3,4-oxadiazole] | 988 fold | 50.6 nM | > 50000 nM |  |  |  |
| FC(F)c1nnc(-c2ccc(Cn3cc(-c4cccc(NC5CCOCC5)c4)nn3)cc2)o1 [Compound 4325, N-(3-(1-(4-(5-(difluoromethyl)-1,3,4-oxadiazol-2-yl)benzyl)-1H-1,2,3-triazol-4-yl)phenyl)tetrahydro-2H-pyran-4-amine] | 830 fold | 60.2 nM | > 50000 nM |  |  |  |
| Fc1cccnc1-c1cn(Cc2ccc(-c3nnc(C(F)F)o3)cn2)nn1 [Compound 4178] | 896 fold | 55.8 nM | > 50000 nM |  |  |  |
| FC(F)c1nnc(-c2ccc(Cn3cc(C4CN(C5COC5)C4)nn3)nc2)o1 [Compound 3955, 2-(difluoromethyl)-5-(6-((4-(1-(oxetan-3-yl)azetidin-3-yl)-1H-1,2,3-triazol-1-yl)methyl)pyridin-3-yl)-1,3,4-oxadiazole] | 95 fold | 522 nM | > 50000 nM |  |  |  |
| FC(F)c1nnc(-c2ccc(Cn3cc(-c4ccc5sccc5c4)nn3)nc2)o1 [Compound 4074, 2-(6-((4-(benzo[b]thiophen-5-yl)-1H-1,2,3-triazol-1-yl)methyl)pyridin-3-yl)-5-(difluoromethyl)-1,3,4-oxadiazole] | 602 fold | 83 nM | > 50000 nM |  |  |  |
| CCN1CCc2ccc(-c3cn(Cc4ccc(-c5nnc(C(F)F)o5)cc4F)nn3)cc2C1 [Compound 4364, 2-(difluoromethyl)-5-(4-((4-(2-ethyl-1,2,3,4-tetrahydroisoquinolin-7-yl)-1H-1,2,3-triazol-1-yl)methyl)-3-fluorophenyl)-1,3,4-oxadiazole] | 1160 fold | 43.1 nM | > 50000 nM |  |  |  |
| CN1C[C@@H]2C[C@H]1CN2c1cccc(-c2cn(Cc3ccc(-c4nnc(C(F)F)o4)cc3)nn2)c1 [Compound 4320, 2-(difluoromethyl)-5-(4-((4-(3-((1S,4S)-5-methyl-2,5-diazabicyclo[2.2.1]heptan-2-yl)phenyl)-1H-1,2,3-triazol-1-yl)methyl)phenyl)-1,3,4-oxadiazole] | 719 fold | 69.5 nM | > 50000 nM |  |  |  |
